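Grown in 96-well plates, cells were treated for 48 hours with each compound at five concentrations. Insufficient inhibition: endpoint recorded as highest concentration tested. TGI is the concentration that stops growth completely.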
Tests used:
Assay in all cases: NCI tumour cell line growth inhibition, 48 h
[1] = test system: M19-MEL melanoma
[2] = test system: RXF-631 renal
[3] = test system: DMS 273 small cell lung
[4] = test system: DMS 114 small cell lung
[5] = test system: LXFL 529 NSCLC
[6] = test system: HOP-18 NSCLC
[7] = test system: P388 leukemia
[8] = test system: SN12K1 renal
[9] = test system: P388/ADR leukemia

Structure (SMILES)	TGI [1] [µM]	TGI [2] [µM]	TGI [3] [µM]	TGI [4] [µM]	TGI [5] [µM]	TGI [6] [µM]	TGI [7] [µM]	TGI [8] [µM]	TGI [9] [µM]
Cc1cc(C)nc(NS(=O)(=O)c2ccc(Nc3c4ccccc4nc4c(C(=O)N5CCN(CCOS(C)(=O)=O)CC5)ccc(Cl)c34)cc2)n1	> 100	> 100	> 100	> 100					
CCC1(CC)C(=O)NC(=S)N=C1N	> 100	> 100	> 100	> 100	> 100	> 100			
N#CC(C#N)=Cc1cccc(Oc2ccccc2)c1	> 79		36.1	73.2	41	42.4			
COC(=O)/C(=N\NC(=S)NN)C(C(=O)C(=O)Nc1ccccc1C(N)=O)c1nc2ccccc2[nH]c1=O (stereo not given)	> 100	> 100	> 100	> 100	> 100	> 100			
NC(=O)NC(=NCc1ccccc1)NCc1ccccc1			> 100		> 100				
NC(CCSCC(F)F)C(=O)O (stereo not given)	> 100	> 100	> 100	> 100	> 100	> 100			
O=c1c2cc3c(=O)n(CCc4ccccc4CO)c(=O)c3cc2c(=O)n1CCc1ccccc1CO	> 100		> 100	> 100	> 100				
CCOC(=O)C(C)NC(=O)N(C)C12CC3CC(CC(C3)C1)C2 (stereo not given)	> 452		> 500	312		> 500	231	> 500	> 409
CCC1C(=O)OCc2c1cc1n(c2=O)CCC12OCCO2 (stereo not given)	> 100		> 100	> 100	> 100				
COCC(=O)OC1CCn2c1nc1c2C(=O)C(C)=C(NC(C)=O)C1=O (stereo not given)	25.4		33.6	5.48	11.5	57.2			
O=C(NN1C(=O)CSC1c1ccc(Cl)c(Cl)c1)c1ccncc1 (stereo not given)		> 100	> 100	> 100	> 100				
COc1cc(CCCOC2OC(COC3OCC(O)C(O)C3O)C(O)C(O)C2O)cc2cc(-c3ccc4c(c3)OCO4)oc12 (stereo not given)	> 175		> 175	> 175			> 175	> 175	> 175
O=C(c1ccccc1)[C@H]1Nc2cnccc2C2c3ccccc3CC21 (stereo not given in full)	23.8	> 100	> 63.9	30.7	19.7	45.6			
